Test results reported in patent publication US4425356A, “Lankacidin derivatives used in swine husbandry” (Takeda Chemical Industries, Ltd., priority 1980, dated 1984).
≈ marks a conversion by molar mass, not a printed value. Like-named read-outs stand apart in the source and are kept apart here.

Legend:
Treponema hyodysenteriae = assay: in vitro antibacterial activity (MIC, agar dilution method), Test Examples 1-3; type: cell-based; settings: 37° C., 2 days, anaerobic; for MIC: Brachyspira hyodysenteriae, 48 h, read-out: Minimum Inhibitory Concentration
Description: Several agents were tested for in vitro antibacterial activity against Treponema hyodysenteriae, the pathogenic bacteria causing swine dysentery, by the method of testing drug sensitivity of Treponema hyodysenteriae (Kashiwazaki et al. Abstracts of Papers presented at the 82nd Meeting of the Japanese Society of Veterinary Science, page 101, 1976).
(1) Strains: These strains belong to Treponema hyodysenteriae isolated
from the bloody mucous faeces of dysenteric pigs in Japan.
(2) Antimicrobial activity assay: Agar dilution method
(3) Inoculum size: A loopful of bacterial suspension (10^6 CFU/ml)
(4) Cultural conditions: GasPak anaerobic system (BBL), 37° C., 2
Typical agents among compound (I) were tested for in vitro antibacterial activity by the same method as in Test Example 1.
The experimental conditions are the same as in Test Example 1 (Table 1).
Agents of compound (I) were tested for in vitro antibacterial activity by the same method as in Test Example 1.

[1] = test system: Treponema hyodysenteriae 78/A strain; assay: efficacy against swine dysentery under experimental infection conditions in pigs (drug in feed), Test Examples 5-7; type: in vivo, Landrace pigs
Description: Lankacidin C was tested for efficacy against swine dysentery under experimental infection conditions. Thus, twelve 6-week-old Landrace pigs (4 per group) were used. The test drug was admixed to a concentration of 100 ppm with the domestically formulated starter feed for young pigs without antibiotics. The animals were provided with the ration ad libitum. Infection of the pigs was effected by direct intragastrical administration to the SPF pigs of an inoculum prepared by preliminary anaerobic cultivation of the Treponema hyodysenteriae 78/A strain on a 5% horse blood added agar plate, mashing together with the culture medium and admixing with 5% mucin added phosphate buffer. Colonic contents and mucosa were collected from pigs which developed typical signs of swine dysentery, and diluted two-fold with 5% mucin added phosphate buffer. The dilution was used as the final inoculum, and 100 ml of the dilution was directly injected into the stomach of test pigs at the age of 7 weeks (fasted for 24 hours before infection). The pigs were fed for 21 days following infection.
The data are each the mean value per head for the 21day period from
infection to autopsy. Different alphabetic letters on the same line
indicate that there is a significant difference between the data to which
they are attached (P <0.05).
Lankacidin C was tested at concentrations in feed of 100 ppm and lower by the same method as in Test Example 5, with carbadox, a commonly used anti-swine-dysentery agent, for comparison.
The anti-swine-dysentery effects of 10 ppm each of lankacidin A and lankacidin C 14-propionate were examined by the procedure of Test Example 6.

[2] = 100 ppm in feed, 21-day test period
[3] = 100 ppm in feed, 21 day period, mean per head

Question: Which MIC (Treponema hyodysenteriae; strain 78/A) does the source give for `CCCCC(=O)OC1C=CC(C)=CC(NC(=O)C(C)=O)C2(C)C(=O)OC(CC(O)C=CC(C)=CC1)C(C)C2=O` (stereo not shown) [Lankacidin C 8-valerate] here?
Answer: The MIC was 1.56 µg/mL (≈ 2.87 µM).

Question: What about the MIC (Treponema hyodysenteriae; strain CD1 (CD-1)) of the same molecule?
Answer: Its MIC is 3.13 µg/mL (≈ 5.76 µM).

Question: And the MIC (Treponema hyodysenteriae; strain DJ70P1)?
Answer: Its MIC is 1.56 µg/mL (≈ 2.87 µM).

Question: What about the MIC (Treponema hyodysenteriae; strain MK-2) of the same molecule?
Answer: Its MIC is 3.13 µg/mL (≈ 5.76 µM).

Question: What does the source list for `CC(=O)C(=O)NC1C=C(C)C=CC(O)CC=C(C)C=CC(OC(=O)c2ccccc2)CC2OC(=O)C1(C)C(=O)C2C` (stereo not shown) [Lankacidin C 14-benzoate, lankacidin C 14-benzoate]?
Answer: MIC (Treponema hyodysenteriae; strain 78/A): 6.25 µg/mL (≈ 11.1 µM); MIC (Treponema hyodysenteriae; strain CD1 (CD-1)): 6.25 µg/mL (≈ 11.1 µM); MIC (Treponema hyodysenteriae; strain DJ70P1): 6.25 µg/mL (≈ 11.1 µM); MIC (Treponema hyodysenteriae; strain MK-2): 6.25 µg/mL (≈ 11.1 µM)

Question: Which MIC (Treponema hyodysenteriae; strain 78/A) does the source give for `CCCC(=O)OC1C=CC(C)=CCC(O)C=CC(C)=CC(NC(=O)C(C)=O)C2(C)C(=O)OC(C1)C(C)C2=O` (stereo not shown) [Lankacidin C 14-butyrate] here?
Answer: Its MIC is 0.78 µg/mL (≈ 1.47 µM).

Question: What about the MIC (Treponema hyodysenteriae; strain CD1 (CD-1)) of the same molecule?
Answer: The MIC was 1.56 µg/mL (≈ 2.95 µM).

Question: And the MIC (Treponema hyodysenteriae; strain DJ70P1)?
Answer: Its MIC is 1.56 µg/mL (≈ 2.95 µM).

Question: What about the MIC (Treponema hyodysenteriae; strain MK-2) of the same molecule?
Answer: The MIC was 3.13 µg/mL (≈ 5.91 µM).

Question: With `CC(=O)C(=O)NC1C=C(C)C=CC(O)CC=C(C)C=CC(OC=O)CC2OC(=O)C1(C)C(=O)C2C` (stereo not shown) [Lankacidin C 14-formate, lankacidin C 14-formate] as the molecule, how does the MIC (Treponema hyodysenteriae; strain 78/A) read?
Answer: The MIC was 6.25 µg/mL (≈ 12.8 µM).

Question: And the MIC (Treponema hyodysenteriae; strain CD1 (CD-1))?
Answer: Its MIC is 12.5 µg/mL (≈ 25.6 µM).

Question: And the MIC (Treponema hyodysenteriae; strain DJ70P1)?
Answer: Its MIC is 6.25 µg/mL (≈ 12.8 µM).

Question: What about the MIC (Treponema hyodysenteriae; strain MK-2) of the same molecule?
Answer: The MIC was 6.25 µg/mL (≈ 12.8 µM).

Question: For `CC(=O)C(=O)NC1C=C(C)C=CC(O)CC=C(C)C=CC(OC(=O)C(C)C)CC2OC(=O)C1(C)C(=O)C2C` (stereo not shown) [Lankacidin C 14-isobutyrate], which MIC (Treponema hyodysenteriae; strain 78/A) is on record?
Answer: Its MIC is 12.5 µg/mL (≈ 23.6 µM).

Question: What about the MIC (Treponema hyodysenteriae; strain CD1 (CD-1)) of the same molecule?
Answer: The MIC was 25 µg/mL (≈ 47.2 µM).

Question: What about the MIC (Treponema hyodysenteriae; strain DJ70P1) of the same molecule?
Answer: The MIC was 12.5 µg/mL (≈ 23.6 µM).

Question: And the MIC (Treponema hyodysenteriae; strain MK-2)?
Answer: Its MIC is 25 µg/mL (≈ 47.2 µM).

Question: How did the MIC (Treponema hyodysenteriae; strain 78/A) turn out when `CCCCC(=O)OC1C=CC(C)=CCC(O)C=CC(C)=CC(NC(=O)C(C)=O)C2(C)C(=O)OC(C1)C(C)C2=O` (stereo not shown) [Lankacidin C 14-valerate] was run?
Answer: Its MIC is 3.13 µg/mL (≈ 5.76 µM).

Question: And the MIC (Treponema hyodysenteriae; strain CD1 (CD-1))?
Answer: The MIC was 6.25 µg/mL (≈ 11.5 µM).

Question: And the MIC (Treponema hyodysenteriae; strain DJ70P1)?
Answer: Its MIC is 3.13 µg/mL (≈ 5.76 µM).

Question: And the MIC (Treponema hyodysenteriae; strain MK-2)?
Answer: Its MIC is 6.25 µg/mL (≈ 11.5 µM).

Question: Which results are given for `CO[C@@H]1[C@@H](O[C@@H]2O[C@H](C)[C@@H](O[C@H]3C[C@@](C)(O)[C@@H](OC(=O)CC(C)C)[C@H](C)O3)[C@H](N(C)C)[C@H]2O)[C@@H](CC=O)C[C@@H](C)[C@@H](O)/C=C/C=C/C[C@@H](C)OC(=O)C[C@H]1O` [Leucomycin, reference compound]?
Answer: MIC (Treponema hyodysenteriae; strain 78/A): > 100 µg/mL; MIC (Treponema hyodysenteriae; strain CD1 (CD-1)): > 100 µg/mL; MIC (Treponema hyodysenteriae; strain DJ70P1): > 100 µg/mL; MIC (Treponema hyodysenteriae; strain MK-2): > 100 µg/mL

Question: What does the source list for `CCC[C@@H]1C[C@@H](C(=O)N[C@@H]([C@H]2O[C@H](SC)[C@H](O)[C@@H](O)[C@H]2O)[C@@H](C)O)N(C)C1` [Lincomycin, reference compound]?
Answer: MIC (Treponema hyodysenteriae; strain 78/A): 50 µg/mL (≈ 123 µM); MIC (Treponema hyodysenteriae; strain CD1 (CD-1)): 50 µg/mL (≈ 123 µM); MIC (Treponema hyodysenteriae; strain DJ70P1): 50 µg/mL (≈ 123 µM); MIC (Treponema hyodysenteriae; strain MK-2): 50 µg/mL (≈ 123 µM)

Question: With `CO[C@H]1C[C@H](O[C@H]2[C@H](C)[C@@H](O[C@@H]3O[C@H](C)C[C@H](N(C)C)[C@H]3O)[C@@H](C)C[C@@]3(CO3)C(=O)[C@H](C)[C@@H](O)[C@@H](C)[C@@H](C)OC(=O)[C@@H]2C)O[C@@H](C)[C@@H]1O` [Oleandomycin, reference compound] as the molecule, how does the MIC (Treponema hyodysenteriae; strain 78/A) read?
Answer: The MIC was greater than 100 µg/mL.

Question: What about the MIC (Treponema hyodysenteriae; strain CD1 (CD-1)) of the same molecule?
Answer: The MIC was greater than 100 µg/mL.

Question: And the MIC (Treponema hyodysenteriae; strain DJ70P1)?
Answer: Its MIC is greater than 100 µg/mL.

Question: And the MIC (Treponema hyodysenteriae; strain MK-2)?
Answer: Its MIC is greater than 100 µg/mL.

Question: Maridomycin [reference compound] was tested. Which “Number of pigs from which the pathogen was detected, in colonic mucosa” value ([1]; 100 ppm in feed) did it give?
Answer: Its value is 4.

Question: What about the “Number of pigs from which the pathogen was detected, in feces” value ([1]; 100 ppm in feed) of the same molecule?
Answer: The value was 4.

Question: What about the “Number of pigs showing colonic lesions” value ([1]; 100 ppm in feed) of the same molecule?
Answer: Its value is 4.

Question: What about the “Number of days on which diarrhea was observed” value [1, 2] of the same molecule?
Answer: The value was 11.0 days.

Question: And the “Number of days on which mucous bloody stool was observed” value [1, 2]?
Answer: Its value is 5.5 days.

Question: What about the “Number of pigs showing signs of infection/number of pigs used” value [1, 2] of the same molecule?
Answer: Its value is 3/4.

Question: And the Body weight gain [1, 3]?
Answer: The Body weight gain was 430 grams/day.

Question: And the Feed conversion [1, 3]?
Answer: Its Feed conversion is 2.09.

Question: And the Feed intake [1, 3]?
Answer: Its Feed intake is 18.8 kg.

Question: And the “Body weight at the time of completion of test” value ([1]; 100 ppm in feed, mean per head)?
Answer: Its value is 21.9 kg.

Question: And the “effect against swine dysentery (in words)” value ([1]; pig, in vivo)?
Answer: The value was “ineffective”.

Question: And the “Minimum Inhibitory Concentration” value (Treponema hyodysenteriae; strain 78/A)?
Answer: Its value is greater than 100 µg/mL.

Question: What about the “Minimum Inhibitory Concentration” value (Treponema hyodysenteriae; strain CD1 (CD-1)) of the same molecule?
Answer: Its value is greater than 100 µg/mL.

Question: And the “Minimum Inhibitory Concentration” value (Treponema hyodysenteriae; strain DJ70P1)?
Answer: Its value is greater than 100 µg/mL.

Question: What about the “Minimum Inhibitory Concentration” value (Treponema hyodysenteriae; strain MK-2) of the same molecule?
Answer: The value was greater than 100 µg/mL.

Question: Which results are given for Spiramycin [reference compound]?
Answer: Minimum Inhibitory Concentration (Treponema hyodysenteriae; strain 78/A): > 100 µg/mL; Minimum Inhibitory Concentration (Treponema hyodysenteriae; strain CD1 (CD-1)): > 100 µg/mL; Minimum Inhibitory Concentration (Treponema hyodysenteriae; strain DJ70P1): > 100 µg/mL; Minimum Inhibitory Concentration (Treponema hyodysenteriae; strain MK-2): > 100 µg/mL
